Measurements from ChEMBL document CHEMBL1201862, “PubChem BioAssay data set” (2004).
The source made the active and inactive calls.

Assays:
Type in all cases: functional
[1] = biological target: Rho-associated protein kinase 1 (Homo sapiens, UniProt Q13464);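 also: measured within a broad kinome-wide panel profiling many kinases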
[2] = biological target: Dual specificity protein kinase CLK2 (Homo sapiens, UniProt P49760)
[3] = biological target: Calcium/calmodulin-dependent protein kinase type II subunit alpha (Homo sapiens, UniProt Q9UQM7); test: Navigating the Kinome. Panel member name: CAMK2A
[4] = biological target: Dual specificity protein kinase CLK4 (Homo sapiens, UniProt Q9HAZ1)
[5] = biological target: Fibroblast growth factor receptor 1 (Homo sapiens, UniProt P11362)
[6] = biological target: ALK tyrosine kinase receptor (Homo sapiens, UniProt Q9UM73);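 also: ALK tested as one member of a kinase panel screen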
Chain of ALK tyrosine kinase receptor (Q9UM73 whole entry): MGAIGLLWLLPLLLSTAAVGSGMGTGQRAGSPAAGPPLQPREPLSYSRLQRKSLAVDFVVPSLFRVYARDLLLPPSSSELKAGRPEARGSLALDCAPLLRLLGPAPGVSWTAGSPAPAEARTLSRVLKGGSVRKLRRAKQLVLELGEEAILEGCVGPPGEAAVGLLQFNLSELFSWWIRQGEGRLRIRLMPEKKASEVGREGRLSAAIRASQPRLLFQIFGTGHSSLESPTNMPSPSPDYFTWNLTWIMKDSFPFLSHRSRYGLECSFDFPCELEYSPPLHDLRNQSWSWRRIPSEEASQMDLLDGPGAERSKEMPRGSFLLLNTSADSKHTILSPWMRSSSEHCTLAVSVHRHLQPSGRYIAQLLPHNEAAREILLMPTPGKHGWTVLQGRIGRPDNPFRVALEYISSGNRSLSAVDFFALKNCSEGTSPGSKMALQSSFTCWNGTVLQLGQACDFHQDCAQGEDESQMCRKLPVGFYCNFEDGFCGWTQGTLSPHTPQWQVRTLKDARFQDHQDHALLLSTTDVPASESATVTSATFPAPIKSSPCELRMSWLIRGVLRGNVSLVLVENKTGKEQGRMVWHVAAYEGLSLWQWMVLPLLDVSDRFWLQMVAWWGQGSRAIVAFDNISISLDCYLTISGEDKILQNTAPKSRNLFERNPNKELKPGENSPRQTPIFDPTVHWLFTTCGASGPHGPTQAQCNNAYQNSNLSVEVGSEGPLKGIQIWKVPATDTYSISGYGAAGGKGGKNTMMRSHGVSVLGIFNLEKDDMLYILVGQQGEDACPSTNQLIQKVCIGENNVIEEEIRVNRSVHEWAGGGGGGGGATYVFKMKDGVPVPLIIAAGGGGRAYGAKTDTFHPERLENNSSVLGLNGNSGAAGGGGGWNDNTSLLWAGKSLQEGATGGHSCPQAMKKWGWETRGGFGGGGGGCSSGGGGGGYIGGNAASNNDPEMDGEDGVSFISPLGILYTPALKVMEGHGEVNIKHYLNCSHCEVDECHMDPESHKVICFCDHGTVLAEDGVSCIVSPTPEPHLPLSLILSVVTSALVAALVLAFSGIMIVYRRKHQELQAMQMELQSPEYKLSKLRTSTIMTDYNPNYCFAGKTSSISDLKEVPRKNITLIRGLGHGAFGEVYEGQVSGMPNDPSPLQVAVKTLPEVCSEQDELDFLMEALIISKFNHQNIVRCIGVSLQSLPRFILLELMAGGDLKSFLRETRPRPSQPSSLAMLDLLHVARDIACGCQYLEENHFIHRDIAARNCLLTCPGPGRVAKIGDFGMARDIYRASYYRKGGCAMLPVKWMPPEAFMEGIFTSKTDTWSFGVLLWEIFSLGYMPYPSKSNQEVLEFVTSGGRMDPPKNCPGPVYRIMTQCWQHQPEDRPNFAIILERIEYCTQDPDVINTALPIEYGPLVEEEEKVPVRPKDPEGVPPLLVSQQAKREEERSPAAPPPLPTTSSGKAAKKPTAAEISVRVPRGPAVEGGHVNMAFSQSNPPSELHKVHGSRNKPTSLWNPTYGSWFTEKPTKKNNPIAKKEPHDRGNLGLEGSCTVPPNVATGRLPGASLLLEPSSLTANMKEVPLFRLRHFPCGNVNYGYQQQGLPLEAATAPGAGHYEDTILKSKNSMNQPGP

[7] = biological target: G protein-coupled receptor kinase 5 (Homo sapiens, UniProt P34947); test: Navigating the Kinome. Panel member name: GPRK5
[8] = biological target: Dual specificity mitogen-activated protein kinase kinase 1 (Homo sapiens, UniProt Q02750); test: Navigating the Kinome. Panel member name: MAP2K1
[9] = biological target: Macrophage colony-stimulating factor 1 receptor (Homo sapiens, UniProt P07333);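 also: value comes from the Navigating the Kinome screening panel, CSF1R member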
[10] = biological target: Protein kinase C theta type (Homo sapiens, UniProt Q04759); test: Navigating the Kinome. Panel member name: PRKCQ
[11] = biological target: Serine/threonine-protein kinase pim-1 (Homo sapiens, UniProt P11309)
[12] = biological target: Vascular endothelial growth factor receptor 2 (Homo sapiens, UniProt P35968)
Chain of Vascular endothelial growth factor receptor 2 (P35968 whole entry): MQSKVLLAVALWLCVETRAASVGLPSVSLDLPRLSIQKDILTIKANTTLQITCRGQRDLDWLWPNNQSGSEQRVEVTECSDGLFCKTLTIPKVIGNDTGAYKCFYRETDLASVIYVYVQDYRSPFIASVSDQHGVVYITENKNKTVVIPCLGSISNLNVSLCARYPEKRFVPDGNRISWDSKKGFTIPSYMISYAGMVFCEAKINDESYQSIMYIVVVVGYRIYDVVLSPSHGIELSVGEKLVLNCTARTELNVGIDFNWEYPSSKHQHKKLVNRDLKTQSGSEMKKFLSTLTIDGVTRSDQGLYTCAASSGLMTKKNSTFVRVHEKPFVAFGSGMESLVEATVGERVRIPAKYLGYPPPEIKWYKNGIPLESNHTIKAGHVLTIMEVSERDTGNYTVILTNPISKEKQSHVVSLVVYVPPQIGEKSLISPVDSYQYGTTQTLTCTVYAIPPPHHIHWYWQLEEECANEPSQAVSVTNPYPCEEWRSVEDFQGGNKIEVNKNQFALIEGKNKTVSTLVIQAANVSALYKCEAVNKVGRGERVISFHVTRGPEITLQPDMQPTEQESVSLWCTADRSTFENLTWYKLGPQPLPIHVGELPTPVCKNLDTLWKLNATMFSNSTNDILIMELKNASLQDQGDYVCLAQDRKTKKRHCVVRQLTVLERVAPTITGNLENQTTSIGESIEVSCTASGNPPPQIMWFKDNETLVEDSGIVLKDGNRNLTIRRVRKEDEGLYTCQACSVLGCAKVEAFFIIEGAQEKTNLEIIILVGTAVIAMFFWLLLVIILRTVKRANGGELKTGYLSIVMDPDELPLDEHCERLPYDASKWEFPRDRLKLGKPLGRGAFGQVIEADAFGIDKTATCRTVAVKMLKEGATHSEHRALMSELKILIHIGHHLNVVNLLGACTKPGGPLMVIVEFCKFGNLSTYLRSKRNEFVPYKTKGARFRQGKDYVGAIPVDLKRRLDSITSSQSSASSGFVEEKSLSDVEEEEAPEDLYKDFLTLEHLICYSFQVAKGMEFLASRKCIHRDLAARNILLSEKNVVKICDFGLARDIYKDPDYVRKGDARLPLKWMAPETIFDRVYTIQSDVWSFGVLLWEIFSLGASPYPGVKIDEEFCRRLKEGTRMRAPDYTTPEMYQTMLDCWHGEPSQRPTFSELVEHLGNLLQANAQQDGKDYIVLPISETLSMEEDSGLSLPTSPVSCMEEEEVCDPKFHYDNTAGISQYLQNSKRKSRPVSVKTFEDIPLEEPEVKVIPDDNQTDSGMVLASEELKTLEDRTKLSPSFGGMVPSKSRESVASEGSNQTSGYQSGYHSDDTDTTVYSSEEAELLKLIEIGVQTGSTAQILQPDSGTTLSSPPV

[13] = biological target: Tyrosine-protein kinase JAK3 (Homo sapiens, UniProt P52333)
[14] = biological target: Mitogen-activated protein kinase 8 (Homo sapiens, UniProt P45983);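 also: value comes from one member of a kinome-wide kinase profiling panel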
[15] = biological target: 5'-AMP-activated protein kinase catalytic subunit alpha-1 (Homo sapiens, UniProt Q13131)
[16] = biological target: Aurora kinase A (Homo sapiens, UniProt O14965);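 also: value from the Navigating the Kinome kinase panel profiling, panel entry STK6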
[17] = biological target: cAMP-dependent protein kinase catalytic subunit alpha (Homo sapiens, UniProt P17612)
[18] = biological target: Tyrosine-protein kinase JAK2 (Homo sapiens, UniProt O60674);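 also: JAK2 tested as one member of a kinase panel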
[19] = biological target: Dual specificity mitogen-activated protein kinase kinase 2 (Homo sapiens, UniProt P36507); test: Navigating the Kinome. Panel member name: MAP2K2
[20] = biological target: Tyrosine-protein kinase receptor TYRO3 (Homo sapiens, UniProt Q06418);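 also: TYRO3 value obtained as one member of a kinome-wide profiling panel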
Chain of Tyrosine-protein kinase receptor TYRO3 (Q06418 whole entry): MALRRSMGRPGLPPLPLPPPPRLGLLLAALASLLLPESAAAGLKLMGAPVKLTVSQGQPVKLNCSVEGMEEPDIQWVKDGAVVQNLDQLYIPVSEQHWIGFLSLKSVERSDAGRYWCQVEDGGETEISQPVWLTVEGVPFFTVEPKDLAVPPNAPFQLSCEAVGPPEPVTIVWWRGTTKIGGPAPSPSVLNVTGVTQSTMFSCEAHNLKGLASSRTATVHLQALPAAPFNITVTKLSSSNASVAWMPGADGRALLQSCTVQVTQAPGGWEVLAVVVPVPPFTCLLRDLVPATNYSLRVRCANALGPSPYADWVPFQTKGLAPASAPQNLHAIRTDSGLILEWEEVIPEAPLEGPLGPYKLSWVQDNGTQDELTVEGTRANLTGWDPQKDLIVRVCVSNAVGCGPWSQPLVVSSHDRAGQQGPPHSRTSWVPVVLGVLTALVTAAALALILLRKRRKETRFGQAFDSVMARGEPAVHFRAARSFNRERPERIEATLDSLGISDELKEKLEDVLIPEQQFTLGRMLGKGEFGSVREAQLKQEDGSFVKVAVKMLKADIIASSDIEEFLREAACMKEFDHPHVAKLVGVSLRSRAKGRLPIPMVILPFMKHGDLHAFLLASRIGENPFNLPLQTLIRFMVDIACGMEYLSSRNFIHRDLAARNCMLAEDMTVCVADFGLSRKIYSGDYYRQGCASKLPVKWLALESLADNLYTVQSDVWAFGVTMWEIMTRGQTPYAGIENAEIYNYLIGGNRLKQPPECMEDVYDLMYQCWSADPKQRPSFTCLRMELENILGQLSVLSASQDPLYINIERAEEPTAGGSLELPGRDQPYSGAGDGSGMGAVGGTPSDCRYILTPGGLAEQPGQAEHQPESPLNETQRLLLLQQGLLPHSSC

[21] = biological target: Serine/threonine-protein kinase TBK1 (Homo sapiens, UniProt Q9UHD2); test: Navigating the Kinome. Panel member name: TBK1
[22] = biological target: Leukocyte tyrosine kinase receptor (Homo sapiens, UniProt P29376); test: Navigating the Kinome. Panel member name: LTK
[23] = biological target: BDNF/NT-3 growth factors receptor (Homo sapiens, UniProt Q16620);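 also: NTRK2 measured as one member of a broad kinome-wide kinase profiling panel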
[24] = biological target: Tyrosine-protein kinase BTK (Homo sapiens, UniProt Q06187)
[25] = biological target: Leucine-rich repeat serine/threonine-protein kinase 2 (Homo sapiens, UniProt Q5S007);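 also: value from a broad kinome-wide panel profiling study in which LRRK2 was one of the kinases tested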
[26] = biological target: Cyclin-dependent kinase 9 (Homo sapiens, UniProt P50750);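 also: value from the CDK9 entry of a kinome-spanning kinase panel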
[27] = biological target: Dual specificity tyrosine-phosphorylation-regulated kinase 1A (Homo sapiens, UniProt Q13627);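 also: measured against DYRK1A as one member of a broad kinome profiling panel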
[28] = biological target: Mitogen-activated protein kinase kinase kinase kinase 4 (Homo sapiens, UniProt O95819)
[29] = biological target: Casein kinase I isoform alpha (Homo sapiens, UniProt P48729)
[30] = biological target: Serine/threonine-protein kinase TAO1 (Homo sapiens, UniProt Q7L7X3)
[31] = biological target: Tyrosine-protein kinase Lck (Homo sapiens, UniProt P06239);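 also: lck was assayed as one member of a kinase panel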
[32] = biological target: Serine/threonine-protein kinase PAK 4 (Homo sapiens, UniProt O96013);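 also: value obtained within a kinome profiling panel in which PAK4 was one of the panel members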
[33] = biological target: Tyrosine-protein kinase Fyn (Homo sapiens, UniProt P06241)
[34] = biological target: Proto-oncogene tyrosine-protein kinase receptor Ret (Homo sapiens, UniProt P07949);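 also: measured within a kinome-wide profiling panel, RET as the panel member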
[35] = biological target: Hepatocyte growth factor receptor (Homo sapiens, UniProt P08581);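 also: kinase panel profiling across the kinome, with MET as the panel member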
[36] = biological target: Ribosomal protein S6 kinase alpha-3 (Homo sapiens, UniProt P51812);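 also: measured within a kinome-wide profiling panel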
[37] = biological target: MAP/microtubule affinity-regulating kinase 3 (Homo sapiens, UniProt P27448);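 also: MARK3 affinity measured as one member of a kinome panel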
Chain of MAP/microtubule affinity-regulating kinase 3 (P27448 whole entry): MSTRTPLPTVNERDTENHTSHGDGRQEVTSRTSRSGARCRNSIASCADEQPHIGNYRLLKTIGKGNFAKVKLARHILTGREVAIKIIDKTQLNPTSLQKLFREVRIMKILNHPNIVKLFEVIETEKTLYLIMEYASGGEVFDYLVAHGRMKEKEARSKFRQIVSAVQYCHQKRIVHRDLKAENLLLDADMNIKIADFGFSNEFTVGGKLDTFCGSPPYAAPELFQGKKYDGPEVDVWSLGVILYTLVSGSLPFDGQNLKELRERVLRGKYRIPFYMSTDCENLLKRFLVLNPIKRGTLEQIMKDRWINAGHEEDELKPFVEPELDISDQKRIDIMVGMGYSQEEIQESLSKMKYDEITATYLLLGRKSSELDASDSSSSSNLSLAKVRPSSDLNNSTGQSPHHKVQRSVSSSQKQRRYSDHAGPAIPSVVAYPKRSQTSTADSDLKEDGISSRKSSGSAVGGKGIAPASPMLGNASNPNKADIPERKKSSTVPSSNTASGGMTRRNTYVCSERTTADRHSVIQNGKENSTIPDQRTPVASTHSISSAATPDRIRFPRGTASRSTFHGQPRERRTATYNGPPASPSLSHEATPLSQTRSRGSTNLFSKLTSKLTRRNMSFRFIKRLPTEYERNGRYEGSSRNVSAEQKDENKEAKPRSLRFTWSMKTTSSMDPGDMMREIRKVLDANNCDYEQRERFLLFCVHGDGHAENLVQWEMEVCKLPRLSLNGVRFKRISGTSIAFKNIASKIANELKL

[38] = biological target: Death-associated protein kinase 3 (Homo sapiens, UniProt O43293);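 also: measured as one member of a kinome-wide profiling panel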
[39] = biological target: High affinity nerve growth factor receptor (Homo sapiens, UniProt P04629);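 also: NTRK1 tested as one member of a kinome-wide profiling panel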
[40] = biological target: Cyclin-dependent kinase 7 (Homo sapiens, UniProt P50613);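 also: value comes from a kinome-wide kinase profiling panel in which CDK7 is one member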
Chain of Cyclin-dependent kinase 7 (P50613 whole entry): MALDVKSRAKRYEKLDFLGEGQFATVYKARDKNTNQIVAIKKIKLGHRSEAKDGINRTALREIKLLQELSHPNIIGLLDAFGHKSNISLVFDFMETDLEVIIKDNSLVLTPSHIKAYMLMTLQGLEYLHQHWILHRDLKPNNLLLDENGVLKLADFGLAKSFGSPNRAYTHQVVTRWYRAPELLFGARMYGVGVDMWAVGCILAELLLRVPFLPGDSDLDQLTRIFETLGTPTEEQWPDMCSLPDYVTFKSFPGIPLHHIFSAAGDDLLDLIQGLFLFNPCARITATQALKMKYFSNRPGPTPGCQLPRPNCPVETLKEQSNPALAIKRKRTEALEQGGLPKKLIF

[41] = biological target: Inhibitor of nuclear factor kappa-B kinase subunit epsilon (Homo sapiens, UniProt Q14164); test: Navigating the Kinome. Panel member name: IKBKE

Measured: Ki

NC(=O)c1ccc(-c2nc(-c3ccc4c(c3)OCO4)c(-c3ccccn3)[nH]2)cc1 [SB-431542]
inactive: [1] > 3.98 µM | [2] > 3.98 µM | [3] > 7.94 µM | [4] > 2.51 µM | [5] > 3.98 µM | [6] > 6.31 µM | [7] > 3.98 µM | [8] > 3.16 µM | [9] > 2.51 µM | [10] > 2.51 µM | [11] > 6.31 µM | [12] > 2.51 µM | [13] > 5.01 µM | [14] > 5.01 µM | [15] > 3.16 µM | [16] > 1.58 µM | [17] > 1.26 µM | [18] > 2.51 µM | [19] > 3.98 µM | [20] > 3.16 µM | [21] > 3.16 µM | [22] > 2.51 µM | [23] > 3.98 µM | [24] > 6.31 µM | [25] > 2.51 µM | [26] > 1.58 µM | [27] > 2 µM | [28] > 5.01 µM | [30] > 2.51 µM | [31] > 6.31 µM | [32] > 5.01 µM | [33] > 6.31 µM | [34] > 3.16 µM | [35] > 2.51 µM | [36] > 3.98 µM | [37] > 5.01 µM | [38] > 5.01 µM | [39] > 3.16 µM | [40] > 3.98 µM | [41] > 3.16 µM
active: [29] 0.1 µM
